Values joined by “and” are separate entries in the source; they are usually repeats but may differ in a detail not shown here. Equal entries are not always repeated.
Key:
Type in all cases: cell-based, human
[1] = test system: iron-regulatory proteins (IRPs); assay: iron regulatory protein gel-retardation assay (IRP-RNA binding activity); details: SK-N-MC cells, 20 hr incubation; chelators 25 μM, DFO 100 μM, FAC 100 μg/ml
Experimental: FIG. 5. The effect of the chelators on the RNA-binding activity of the iron-regulatory proteins (IRPs) in the SK-N-MC neuroepithelioma cells. Cells were incubated for 20 h with either medium alone (control), ferric ammonium citrate (FAC: 100 μg/ml), DFO (100 μM), or the other chelators (25 μM).
A gel-retardation assay was used to measure the interaction between the IRPs and IRE using established techniques (Leibold et al., […]. Proc. Natl. Acad. Sci. USA 85 2171–5; Müllner et al., 1989 Cell 58 373–82). Briefly, after incubation with medium alone (control) or medium containing ferric ammonium citrate (100 μg/ml: Aldrich Ltd., Sydney, Australia) or the chelator. […] cells were washed with ice-cold phosphate-buffered saline (PBS) and lysed at 4° C. in 40 μl of ice-cold Munro extraction buffer (10 mM HEPES, pH 7.6, 3 mM MgCl2, 40 mM KCl, 5% glycerol, 1 MM dithiothreitol and 0.5% Nonidet P-40). After lysis, the samples were then centrifuged at 10,000 rpm for 3 mins at 4° C. to remove nuclei and the supernatant stored at −70° C. Frozen cytoplasmic extracts were thawed on ice and then centrifuged at 15,000 rpm for 10 min at 4° C. The protein concentration of the soluble supernatant was determined using the BioRad protein assay (BioRad Ltd., USA). Samples of cytoplasmic extracts were diluted to a protein concentration of 100 μg/ml in Munro buffer without Nonidet P-40 and 1 μg aliquots were analyzed for IRP by incubation with 0.1 ng (approximately 1×10^5 cpm) of ^32P-labelled pGL66 RNA transcript (Leibold et al., 1988). The riboprobe was transcribed in vitro from linearized plasmid templates using SP6 RNA polymerase in the presence of α-^32P UTP (Dupont, NEN). This latter reaction was performed using the Promega Riboprobe In Vitro Transcription Kit (Promega, Madison, Wis., USA). The probe was subsequently purified on a 6% urea/PAGE gel. To form RNA-protein complexes, cytoplasmic extracts containing 1 μg of protein were incubated for 10 mins at room temperature with the ^32P-labelled riboprobe. Unprotected probe was degraded by incubation with 1 U of RNAse T1 for 10 mins at room temperature. Heparin (Sigma) at a final concentration of 5 mg/ml was then added and incubated with the extract for another 10 min at room temperature to exclude non-specific binding. RNA-protein complexes were analyzed in 6% non-denaturing polyacrylamide gels at 4° C. as described by Konarska et al., 1986, Cell 46 845–55. Gels were dried, covered in plastic film and exposed to Kodak XAR films at −70° C. with an intensifying screen.
An important effect of intracellular Fe depletion using DFO is the activation of RNA-binding activity of the iron regulatory proteins (IRP's) (Hentze et al., 1996, Proc. Natl. Acad. Sci. USA 93 8175–82). […] The present inventors examined the effect of a 20 hr incubation with 311, PIH and the PCIH analogues (25 μM) on IRP-RNA binding activity in SK-N-MC cells. In all experiments, DFO (100 μM) was used as a positive control to deplete cells of Fe and increase IRP-RNA binding activity. In contrast, ferric ammonium citrate (FAC: 100 μg/ml) was used to donate Fe to cells and reduce IRP-RNA binding.

[2] = test system: SK-N-MC neuroepithelioma cells; assay: internalized 59Fe uptake from 59Fe-transferrin; details: for Internalised Iron Uptake (% Control) / 59Fe uptake from 59Fe-Tf, % of the control value (FIG. 2B): SK-N-MC, chelators 50 μM, DFO 100 μM; for Internalised Iron Uptake (% Control): 59Fe-transferrin 0.75 μM, 3 h at 37° C., mean±SD; for 59Fe uptake from 59Fe-Tf, % of the control value (FIG. 2B): 3 hrs at 37° C., FIG. 2B screening experiment
Experimental: The effect of chelators on ^59Fe uptake from ^59Fe-Tf and ^59Fe release from prelabelled cells was studied using standard procedures reported previously (Richardson et al., 1994, J. Lab Clin. Med. 124 660-71). The amount of ^59Fe internalized by the cells was measured by incubation with the general protease pronase (1 mg/ml) for 30 min at 4° C. to remove membrane-bound ^59Fe and Tf (Richardson et al., 1990; Baker et al., 1998, Biochim. Biophys. Acta 1380 21-30). […] To determine the ability of the chelators to inhibit ^59Fe uptake from ^59Fe-Tf (0.75 μM). […] Table 2. The effect of DFO, 311, […], or PCBHH on internalized ^59Fe uptake from ^59Fe-transferrin by BE-2 neuroblastoma cells, SK-N-MC neuroepithelioma cells, and SK-Mel-28 melanoma cells. Cells were incubated with the chelators and ^59Fe-transferrin (0.75 μM) for 3 h at 37° C., washed, and incubated for 30 min at 4° C. with pronase (1 mg/ml) to separate the internalized from the membrane-bound ^59Fe. All chelators were screened at a concentration of 50 μM except for DFO which was examined at 100 μM. Results are mean±SD (three determinations) from a typical experiment.

[3] = test system: SK-N-MC neuroepithelioma cells; assay: 59Fe release from prelabelled cells (iron efflux); details: DFO 100 μM; for release of cellular 59Fe (FIG. 2A): 3 hr labelling, 3 hr reincubation, ligands 50 μM, FIG. 2A screening experiment; for % Cellular Iron Released: labelled 3 h with 59Fe-transferrin 0.75 μM, reincubated 3 h at 37° C., chelators 50 μM, Mean±SD
Experimental: The effect of chelators on ^59Fe uptake from ^59Fe-Tf and ^59Fe release from prelabelled cells was studied using standard procedures reported previously (Richardson et al., 1994, J. Lab Clin. Med. 124 660–71). The amount of ^59Fe internalized by the cells was measured by incubation with the general protease pronase (1 mg/ml) for 30 min at 4° C. to remove membrane-bound ^59Fe and Tf (Richardson et al., 1990; Baker et al., 1998, Biochim. Biophys. Acta 1380 21–30).
The efflux of ^59Fe from SK-N-MC cells was examined after a 3 hr labelling period with ^59Fe-Tf (0.75 μM) followed by a 3 hr reincubation in the presence and absence of DFO (100 μM) or the remainder of the ligands at 50 μM (FIG. 2A).
Table 1. The effect of DFO, 311, PCTH, PCBH, or PCBHH on ^59Fe release from BE-2 neuroblastoma cells, SK-N-MC neuroepithelioma cells, and SK-Mel-28 melanoma cells. Cells were labeled for 3 h at 37° C. with ^59Fe-transferrin (0.75 μM), washed, and then reincubated with the chelators for 3 h at 37° C. […] Results are Mean±SD of three determinations in a typical experiment.

CC(=O)N(O)CCCCCNC(=O)CCC(=O)N(O)CCCCCNC(=O)CCC(=O)N(O)CCCCCN [DFO, desferrioxamine, reference compound]
IRP-RNA binding activity compared to the control (FIG. 5) [1]: increase
Internalised Iron Uptake (% Control) [2]: 100 % Control and 100 ± 6 % Control
59Fe uptake from 59Fe-Tf, % of the control value (FIG. 2B) [2]: 91 % of the control
release of cellular 59Fe (FIG. 2A) [3]: 19%
% Cellular Iron Released [3]: 18 ± 3%

O=C(NN=Cc1ccccn1)c1cccs1 [PCTH, 2-pyridylcarboxaldehyde 2-thiophenecarboxyl hydrazone]
IRP-RNA binding activity compared to the control (FIG. 5) [1]: marked increase
Internalised Iron Uptake (% Control) [2]: 16 ± 1 % Control
% Cellular Iron Released [3]: 51 ± 5%

O=C(NN=Cc1c(O)ccc2ccccc12)c1ccncc1 [Chelator 311, 2-hydroxy-1-naphthylaldehyde isonicotinoyl hydrazone, reference compound]
IRP-RNA binding activity compared to the control (FIG. 5) [1]: marked increase
59Fe uptake from 59Fe-Tf, % of the control, range over all 3 cell lines ([2]; BE-2, SK-N-MC and SK-Mel-28 cell lines together, 3 hr, 50 μM, Table 2): 8–10 % of the control
Internalised Iron Uptake (% Control) [2]: 10 ± 4 % Control
% Cellular Iron Released [3]: 49 ± 1%

O=C(NN=Cc1ccccn1)c1ccccc1 [PCBH, 2-pyridylcarboxaldehyde benzoyl hydrazone]
IRP-RNA binding activity compared to the control (FIG. 5) [1]: marked increase
Internalised Iron Uptake (% Control) [2]: 20 ± 2 % Control
% Cellular Iron Released [3]: 47 ± 3%

O=C(NN=Cc1ccco1)c1ccncc1 [FIH, 2furoylcarboxaldehyde isonicotinoyl hydrazone]
IRP-RNA binding activity compared to the control (FIG. 5) [1]: decreased
59Fe uptake from 59Fe-Tf, % of the control value (FIG. 2B) [2]: no effect
release of cellular 59Fe (FIG. 2A) [3]: did not appreciably increase

From patent publication US6989397B1, “Iron chelators and uses thereof” (University of Queensland, priority 1999, dated 2006)
